Measured values taken from ChEMBL document CHEMBL3045230, “Synthesis and pharmacological evaluation of novel 4-isopropylthiazole-4-phenyl-1,2,4-triazole derivatives as potential antimicrobial and antitubercular agents” (Med Chem Res, 2013).
≈ marks a conversion by molar mass, not a printed value.

What was measured:
[1] = test system: Klebsiella pneumoniae; experiment: Antimicrobial activity against Klebsiella pneumoniae ATCC 10031 assessed as growth inhibition after 24 hr by broth dilution assay method; type: functional; settings: ATCC 10031, 24 h
[2] = test system: Bacillus subtilis; experiment: Antimicrobial activity against Bacillus subtilis ATCC 60511 assessed as growth inhibition after 24 hr by broth dilution assay method; type: functional; settings: ATCC 60511, 24 h
[3] = test system: Enterococcus faecalis; experiment: Antimicrobial activity against […] ATCC 14506 assessed as growth inhibition after 24 hr by broth dilution assay method; type: functional; settings: ATCC 14506, 24 h
[4] = test system: Staphylococcus aureus; experiment: Antimicrobial activity against Staphylococcus aureus ATCC 11632 assessed as growth inhibition after 24 hr by broth dilution assay method; type: functional; settings: ATCC 11632, 24 h
[5] = test system: Mycobacterium tuberculosis; experiment: Antitubercular activity against Mycobacterium tuberculosis H37Rv assessed as growth inhibition after 21 days by broth dilution assay method; type: functional; settings: 504 h
[6] = test system: Aspergillus niger; experiment: Antimicrobial activity against Aspergillus niger ATCC 6275 assessed as growth inhibition after 24 hr by broth dilution assay method; type: functional; settings: ATCC 6275, 24 h
[7] = test system: Candida tropicalis; experiment: Antimicrobial activity against Candida tropicalis ATCC 1369 assessed as growth inhibition after 24 hr by broth dilution assay method; type: functional; settings: ATCC 1369, 24 h
[8] = test system: Saccharomyces cerevisiae; experiment: Antimicrobial activity against Saccharomyces cerevisiae ATCC 9763 assessed as growth inhibition after 24 hr by broth dilution assay method; type: functional; settings: ATCC 9763, 24 h
[9] = test system: Pseudomonas aeruginosa; experiment: Antimicrobial activity against Pseudomonas aeruginosa ATCC 10145 assessed as growth inhibition after 24 hr by broth dilution assay method; type: functional; settings: ATCC 10145, 24 h
[10] = test system: Escherichia coli; experiment: Antimicrobial activity against Escherichia coli ATCC 10536 assessed as growth inhibition after 24 hr by broth dilution assay method; type: functional; settings: ATCC 10536, 24 h
[11] = Cytotoxicity against Homo sapiens (human) A549 cells assessed as viable cells at 250 uM by MTT assay in presence of fetal bovine serum; type: cell-based; settings: A549 cells, read-out: Activity

| Structure (SMILES) | MIC [1] | MIC [2] | MIC [3] | MIC [4] | MIC [5] | MIC [6] | MIC [7] | MIC [8] | MIC [9] | MIC [10] | viability at 250 µM [11] |
| --- | --- | --- | --- | --- | --- | --- | --- | --- | --- | --- | --- |
| C/C(=N\NC(=O)CSc1nnc(-c2nc(C(C)C)cs2)n1-c1ccccc1)c1ccc([N+](=O)[O-])cc1 | 31.2 µg/mL (≈ 59.9 µM) | 125 µg/mL (≈ 240 µM) | 31.2 µg/mL (≈ 59.9 µM) | 31.2 µg/mL (≈ 59.9 µM) | 62.5 µg/mL (≈ 120 µM) | 125 µg/mL (≈ 240 µM) | 31.2 µg/mL (≈ 59.9 µM) | 125 µg/mL (≈ 240 µM) | 62.5 µg/mL (≈ 120 µM) | 62.5 µg/mL (≈ 120 µM) | – |
| COc1ccc(/C(C)=N/NC(=O)CSc2nnc(-c3nc(C(C)C)cs3)n2-c2ccccc2)cc1 | 250 µg/mL (≈ 493 µM) | 62.5 µg/mL (≈ 123 µM) | 31.2 µg/mL (≈ 61.7 µM) | 31.2 µg/mL (≈ 61.7 µM) | 8 µg/mL (≈ 15.8 µM) | 125 µg/mL (≈ 247 µM) | 125 µg/mL (≈ 247 µM) | 62.5 µg/mL (≈ 123 µM) | 62.5 µg/mL (≈ 123 µM) | 125 µg/mL (≈ 247 µM) | – |
| C/C(=N\NC(=O)CSc1nnc(-c2nc(C(C)C)cs2)n1-c1ccccc1)c1ccc(O)cc1 | 31.2 µg/mL (≈ 63.4 µM) | 62.5 µg/mL (≈ 127 µM) | 31.2 µg/mL (≈ 63.4 µM) | 62.5 µg/mL (≈ 127 µM) | 16 µg/mL (≈ 32.5 µM) | 8 µg/mL (≈ 16.2 µM) | 8 µg/mL (≈ 16.2 µM) | 31.2 µg/mL (≈ 63.4 µM) | 16 µg/mL (≈ 32.5 µM) | 16 µg/mL (≈ 32.5 µM) | 50% |
| C/C(=N\NC(=O)CSc1nnc(-c2nc(C(C)C)cs2)n1-c1ccccc1)c1ccc(C)cc1 | 16 µg/mL (≈ 32.6 µM) | 31.2 µg/mL (≈ 63.7 µM) | 62.5 µg/mL (≈ 127 µM) | 125 µg/mL (≈ 255 µM) | 62.5 µg/mL (≈ 127 µM) | 31.2 µg/mL (≈ 63.7 µM) | 125 µg/mL (≈ 255 µM) | 62.5 µg/mL (≈ 127 µM) | 62.5 µg/mL (≈ 127 µM) | 125 µg/mL (≈ 255 µM) | – |
| C/C(=N\NC(=O)CSc1nnc(-c2nc(C(C)C)cs2)n1-c1ccccc1)c1ccc(Br)cc1 | 31.2 µg/mL (≈ 56.3 µM) | 62.5 µg/mL (≈ 113 µM) | 125 µg/mL (≈ 225 µM) | 16 µg/mL (≈ 28.8 µM) | 31.2 µg/mL (≈ 56.3 µM) | 31.2 µg/mL (≈ 56.3 µM) | 125 µg/mL (≈ 225 µM) | 31.2 µg/mL (≈ 56.3 µM) | 125 µg/mL (≈ 225 µM) | 62.5 µg/mL (≈ 113 µM) | – |
| C/C(=N\NC(=O)CSc1nnc(-c2nc(C(C)C)cs2)n1-c1ccccc1)c1ccc(Cl)cc1 | 62.5 µg/mL (≈ 122 µM) | 125 µg/mL (≈ 245 µM) | 31.2 µg/mL (≈ 61.1 µM) | 31.2 µg/mL (≈ 61.1 µM) | 31.2 µg/mL (≈ 61.1 µM) | 125 µg/mL (≈ 245 µM) | 31.2 µg/mL (≈ 61.1 µM) | 31.2 µg/mL (≈ 61.1 µM) | 31.2 µg/mL (≈ 61.1 µM) | 16 µg/mL (≈ 31.3 µM) | – |
| CC(C)c1csc(-c2nnc(SCc3nnc(-c4ccccc4)o3)n2-c2ccccc2)n1 | 62.5 µg/mL (≈ 136 µM) | 31.2 µg/mL (≈ 67.8 µM) | 31.2 µg/mL (≈ 67.8 µM) | 31.2 µg/mL (≈ 67.8 µM) | – | 31.2 µg/mL (≈ 67.8 µM) | 16 µg/mL (≈ 34.7 µM) | 16 µg/mL (≈ 34.7 µM) | 31.2 µg/mL (≈ 67.8 µM) | 125 µg/mL (≈ 271 µM) | – |
| CC(C)c1csc(-c2nnc(SCc3nnc(CCl)o3)n2-c2ccccc2)n1 | 31.2 µg/mL (≈ 72.2 µM) | 31.2 µg/mL (≈ 72.2 µM) | 16 µg/mL (≈ 37 µM) | 8 µg/mL (≈ 18.5 µM) | – | 31.2 µg/mL (≈ 72.2 µM) | 125 µg/mL (≈ 289 µM) | 62.5 µg/mL (≈ 144 µM) | 16 µg/mL (≈ 37 µM) | 16 µg/mL (≈ 37 µM) | – |
| CC(C)c1csc(-c2nnc(SCc3nnc(-c4ccc(Cl)cc4)o3)n2-c2ccccc2)n1 | 62.5 µg/mL (≈ 126 µM) | 4 µg/mL (≈ 8.08 µM) | 8 µg/mL (≈ 16.2 µM) | 8 µg/mL (≈ 16.2 µM) | – | 125 µg/mL (≈ 253 µM) | 125 µg/mL (≈ 253 µM) | 62.5 µg/mL (≈ 126 µM) | 62.5 µg/mL (≈ 126 µM) | 62.5 µg/mL (≈ 126 µM) | 50% |
| CC(C)c1csc(-c2nnc(SCc3nnc(-c4ccc([N+](=O)[O-])cc4)o3)n2-c2ccccc2)n1 | 31.2 µg/mL (≈ 61.8 µM) | 62.5 µg/mL (≈ 124 µM) | 31.2 µg/mL (≈ 61.8 µM) | 31.2 µg/mL (≈ 61.8 µM) | – | 62.5 µg/mL (≈ 124 µM) | 31.2 µg/mL (≈ 61.8 µM) | 62.5 µg/mL (≈ 124 µM) | 31.2 µg/mL (≈ 61.8 µM) | 62.5 µg/mL (≈ 124 µM) | – |
| Cc1ccc(-c2nnc(CSc3nnc(-c4nc(C(C)C)cs4)n3-c3ccccc3)o2)cc1 | 62.5 µg/mL (≈ 132 µM) | 125 µg/mL (≈ 263 µM) | 31.2 µg/mL (≈ 65.8 µM) | 62.5 µg/mL (≈ 132 µM) | – | 125 µg/mL (≈ 263 µM) | 31.2 µg/mL (≈ 65.8 µM) | 125 µg/mL (≈ 263 µM) | 62.5 µg/mL (≈ 132 µM) | 31.2 µg/mL (≈ 65.8 µM) | – |
| CC(C)c1csc(-c2nnc(SCc3nnc(-c4ccc(O)cc4)o3)n2-c2ccccc2)n1 | 125 µg/mL (≈ 262 µM) | 31.2 µg/mL (≈ 65.6 µM) | 62.5 µg/mL (≈ 131 µM) | 31.2 µg/mL (≈ 65.6 µM) | – | 31.2 µg/mL (≈ 65.6 µM) | 31.2 µg/mL (≈ 65.6 µM) | 31.2 µg/mL (≈ 65.6 µM) | 31.2 µg/mL (≈ 65.6 µM) | 62.5 µg/mL (≈ 131 µM) | – |
